Test results reported in patent EP2251010A1, “Use of thiabendazole and derivatives thereof for the therapy of neurological conditions” (Sygnis Bioscience GmbH & Co. KG, priority 2009, dated 2010).
Where two headings read alike, the source gives them in different places.

How the values were obtained:
neural stem cells = experiment: In vitro differentiation assay on adult neuronal stem cells (beta-III-tubulin promoter dual luciferase reporter); format: cell-based, Wistar rats
Description: The neuroregenerative effect of the compounds according to the present invention can be assayed in vitro by measuring their stimulation of the differentiation of neuronal stem cells. Therefore, adult neuronal stem cells have to be isolated and subsequently cultivated in a suitable culture medium. After several passages in vitro the stem cells have to be co-transfected with a DNA construct coding for two discriminable reporter proteins one of them under the control of a constitutive promoter and the other under the control of a beta-III-tubulin promoter. The beta-III-tubulin promoter is induced during the process of neuronal stem cell differentiation; therefore the reporter protein under the control of this promoter serves as a marker for the stem cell differentiation in such an in vitro dual reporter assay (Schneider et al., J Clin Investigation 2005; 115:2083-2098). The person skilled in the art knows several suitable constitutive promoters such as the SV40-promoter, the TK-promoter, or the CMV-promoter. As discriminable reporter proteins for such a dual reporter assay one can use discriminable luciferases such as firefly luciferase and Renilla luciferase. The transfected cells have to be incubated with the test compound and with positive and negative controls for normalization and background correction. As a positive control compound one can use retinoic acid (Guan et al., Cell Tissue Res. 2001; 305:171-176; Jacobs et al., Proc. Natl. Acad. Sci. USA 2006; 103:3902-3907), a suitable negative control is the sham treatment of the cells. The neroregenerative activity of the test compound is determined as the ratio of the signal of the beta-III-tubulin promoter controlled reporter versus the signal of the constitutively expressed reporter and is expressed as fold from the control. This assay is suitable to assess the neuroregenerative activity of thiabendazole and derivatives thereof, but also can be used to screen for other potential neuroregenerative compounds. Preferably, such a screening can be used to test compounds which are already known to be suitable as a medicament in terms of its toxicology, bioavailability, solubility, stability etc.
In vitro differentiation assay on adult neuronal stem cells with thiabendazole Neural stem cells were isolated from the subventricular zone of 4 week-old male Wistar rats as described (Maurer et al, Proteome Sci. 2003; 1:4). Cells were cultivated in Neurobasal medium (Invitrogen) supplemented with B27 (Invitrogen), 2mM L-glutamine, 100units/ml penicillin, 100units/ml streptomycin, 20ng/ml […] (EGF), 20ng/ml fibroblast growth factor-2 (FGF-2), and 2µg/ml heparin. Once a week the neural stem cells were passaged and experiments were performed after 4 weeks in vitro. For DNA transfection, the cells were dissociated and plated on poly-L-ornithin/laminin-coated 96-well plates at a density of 50.000 cells/well. Cotransfection with the pGL3-p-βIII-tubulin vector (100ng/well) and the pRL SV40 vector (100ng/well) was carried out according to the FuGene6 Transfection protocol (Roche). The pRL SV40 vector (Promega) served as an internal control vector.
To amplify the class III β-tubulin gene promoter (fragment -450 - +54), rat genomic DNA was used as a template for PCR (Dennis et al., Gene 2002;294:269-277). The amplified fragment was inserted into the Mlu I/Xho I site of the pGL3-Basic firefly luciferase reporter vector (Promega) to generate the pGL3-p-βIII-tubulin experimental vector.
After overnight incubation, the plate was decanted and given in 8-fold replicates fresh medium containing thiabendazole (Sigma) or vehicle. As a positive control for in vitro differentiation, stem cells were treated by adding 1 µM retinoic acid (Sigma) to the medium missing the mitogens.
After 48hrs, the cells were harvested to prepare the cellular extracts for luciferase assay following the directions of the manufacturer (Promega). […]

primary cortical neurons = experiment: In vitro anti-apoptosis assay (Caspase-Glo 3/7) on primary cortical neurons with staurosporine; format: cell-based, Wistar rat; conditions: sham 11 %
Description: (§1) Neuroprotection is attainable via the inhibition of apoptosis of affected neurons. The anti-apoptotic effect of thiabendazole and its derivatives can be assayed in vitro by measuring the caspase-3 and caspase-7 activities. These members of the cysteine aspartic acid-specific protease (caspase) family play key effector roles in apoptosis in mammalian cells. Cortical neurons have to be isolated and subsequently cultivated in a suitable culture medium. […] Parallel approaches with staurosporine alone and sham treatment of the cells serve as […]. The assay allows evaluating whether the test compound can compensate either completely or partially for the apoptotic effect of staurosporine.
(§2) The neuroprotective effect of compounds can be assayed in vitro by measuring caspase-3 and caspase-7 activities. These members of the cysteine aspartic acid-specific protease (caspase) family play a key effector role in apoptosis in mammalian cells.
These cells were isolated from twelve to fourteen cortices dissected from Wistar rat embryos on E18. The tissue was dissociated using 0,25 mg/ml trypsin, 0,1 mg/ml EDTA (Sigma), 100 µg/ml DNase (Roche Diagnostics Corp.) in HBSS. The digestion was stopped using 3 parts MEM-medium containing 10 % fetal calf serum, 0,45 % D-(+)glucose, 1 mM sodium-pyruvate and 0,25 µM glutamate. The cells were singularized by 10 strokes with a burnished Pasteur-pipette. After centrifugation, the cell pellet was dissolved in 10 ml medium and plated at a density of 30000 cells per well on a 96-well plate coated with poly-L-lysine for caspase-assays. […] Incubation with staurosporine (SP; 0,5 µM) alone served as positive control and incubation with vehicle (sham) served as negative control.

SH-SY5Y cells [1] = experiment: In vitro anti-apoptosis assay (Caspase-Glo 3/7) on SH-SY5Y cells with staurosporine; format: cell-based, human; conditions: for degree of apoptosis relative to the staurosporine control: SH-SY5Y cells, compound 1 µM plus staurosporine 0,5 µM, sham 26 %, Fig. 5
SH-SY5Y cells [2] = experiment: as above; format: cell-based, human; conditions: for staurosporine induced apoptosis (caspase-3 and caspase-7 activity): sham 10 %
Description: as §1, §2
The human neuroblastoma cell-line SH-SY5Y (American Type Culture Collection) maintained in DMEM with high glucose supplemented with 20% FBS was used for the apoptosis assay. Alternatively one can analyse the apoptosis of primary cortical neurons which can be isolated from E18 rats and subsequently cultivated in suitable culture medium. 2,5 x 10^4 SH-SY5Y cells were seeded in 96-well plates and stimulated 24 h later with thiabendazole or vehicle in the presence of the apoptosis inducing compound staurosporine (0,1 µM, Calbiochem). After 5h incubation at 37 °C, caspase-Glo 3/7 reagent (Promega) containing luciferase and luminogenic substrate was added to the cells. The cleavage of the substrate by caspase-3 and caspase-7 was detected 30 min later using a luminometer (Berthold Technologies, Mithras LB 940). The Luminescence which is proportional to the amount of caspase activity serves as a measure for the apoptosis of the treated neurons. Thiabendazole was tested in a range from 0,8 µM to 100 µM final concentration.
Incubation with staurosporine (SP; 0,5 µM) alone served as positive control and incubation with vehicle (sham) served as negative control.

SH-SY5Y neuronal cells = experiment: In vitro viability assay (constitutive Renilla luciferase reporter); format: cell-based, human; conditions: for viability of neuronal cells (Renilla luciferase activity): final concentration of 1 µM and of 10 µM, Fig. 7
Protocol: The viability assay allows for further assessment of test compounds regarding their effect on cells such as neurons. Therefore, a stably transfected cell line (e.g. SH-SY5Y cells) with a reporter construct (e.g. a luciferase construct) has to be incubated with the test compound and in parallel with positive and negative controls (e.g. staurosporine and sham, respectively). Subsequently, the signal generated by the reporter construct serves as a readout for the viability of the cells in the presence of the test compound. The assay enables the evaluation of potential neurotoxic effects of the test compound itself.
The effect of a compound on the viability of neuronal cells can be assayed in vitro by measuring the survival of neuronal cells transfected with a reporter construct under a constitutive promoter. SH-SY5Y neuronal cells stably transfected with a Renilla luciferase construct under the SV40 promoter were seeded in 96-well plates at a density of 2,5 x 10^4 cells per well. Following overnight incubation the cells were stimulated with medium containing thiabendazole or vehicle. Staurosporine (0,5 µM) served as positive control. The Renilla luciferase activity was measured 5 h later using a luminometer (Berthold Technologies, Mithras LB 940). Thiabendazole was tested in a range from 0,8 µM to 50 µM final concentration.
Analogously, thiabendazole (A; Sigma) and various derivatives thereof (2-(1,3-thiazol-5-yl)-benzimidazole (B; ChemBridge Corporation), 4-(benzimidazol-2-yl)-1,3-thiazol-2-amine (C; ChemBridge Corporation), 2-(2-thienyl)-benzimidazole (D; ChemBridge Corporation), or 2-(1,3-thiazol-4-yl)-benzimidazole-5-ol (E; Witega GmbH), Fig. 8) have been analysed for their effect on the viability of neuronal cells. The compounds were tested in a final concentration of 1 µM and of 10 µM.

[3] = mouse; cited from earlier work
[4] = rat; cited from earlier work
[5] = rabbit; cited from earlier work
[6] = pH 7.0; cited from earlier work
[7] = molecular target: cytochrom P450 1A2 (CyP1A2) (Homo sapiens, UniProt P05177); conditions: cited from earlier work
[8] = man, oral, in 48 hours; cited from earlier work
[9] = final concentrations of 1 µM and 10 µM, Fig. 4
[10] = compound 1 µM plus staurosporine 0,5 µM, Fig. 6

Sequence of cytochrom P450 1A2 (CyP1A2) (P05177 whole entry, species assumed): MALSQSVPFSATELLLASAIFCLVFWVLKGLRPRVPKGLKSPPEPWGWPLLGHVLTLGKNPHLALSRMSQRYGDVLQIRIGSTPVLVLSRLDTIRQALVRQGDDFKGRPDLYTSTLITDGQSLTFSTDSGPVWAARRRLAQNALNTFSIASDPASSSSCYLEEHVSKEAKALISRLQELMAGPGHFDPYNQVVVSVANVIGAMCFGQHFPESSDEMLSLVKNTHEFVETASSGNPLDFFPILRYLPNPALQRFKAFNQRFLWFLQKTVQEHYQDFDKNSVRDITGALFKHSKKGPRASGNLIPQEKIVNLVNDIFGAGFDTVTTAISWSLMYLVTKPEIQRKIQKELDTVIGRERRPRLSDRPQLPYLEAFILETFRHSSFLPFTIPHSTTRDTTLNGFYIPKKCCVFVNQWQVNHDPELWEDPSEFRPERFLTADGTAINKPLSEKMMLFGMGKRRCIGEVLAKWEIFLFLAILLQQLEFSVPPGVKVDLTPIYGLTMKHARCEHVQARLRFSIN

c1csc(-c2nc3ccccc3[nH]2)c1 [D, 2-(2-thienyl)-benzimidazole]
differentiation of neural stem cells to neurons (relative induction of the class III β-tubulin gene promoter controlled luciferase signal) (neural stem cells; [9]): significantly stimulate the differentiation of neural stem cells to neurons
degree of apoptosis relative to the staurosporine control (primary cortical neurons; [10]): 49%
degree of apoptosis relative to the staurosporine control (SH-SY5Y cells [1]): 65%

c1ccc2[nH]c(-c3cscn3)nc2c1 [thiabendazole, 2-(4-thiazolyl)-benzimidazole]
differentiation of neural stem cells to neurons (relative induction of the class III β-tubulin gene promoter controlled luciferase signal) (neural stem cells; 0,2 to 100 µM final concentration, 48hrs, Fig. 1): significantly stimulates the differentiation of neural stem cells to neurons
differentiation of neural stem cells to neurons (relative induction of the class III β-tubulin gene promoter controlled luciferase signal) (neural stem cells; [9]): significantly stimulate the differentiation of neural stem cells to neurons
staurosporine induced apoptosis (caspase-3 and caspase-7 activity) (SH-SY5Y cells [2]; 0,8 µM thiabendazole plus 0,1 µM staurosporine, 5h, staurosporine alone = 100 %): 60%
staurosporine induced apoptosis (caspase-3 and caspase-7 activity) (SH-SY5Y cells [2]; 25 µM thiabendazole plus 0,1 µM staurosporine, 5h, staurosporine alone = 100 %): 10%
staurosporine induced apoptosis (caspase-3 and caspase-7 activity) (SH-SY5Y cells [2]; 50 µM thiabendazole plus 0,1 µM staurosporine, 5h, staurosporine alone = 100 %): 4%
staurosporine induced apoptosis (caspase-3 and caspase-7 activity) (SH-SY5Y cells [2]; 100 µM thiabendazole plus 0,1 µM staurosporine, 5h, staurosporine alone = 100 %): 3%
staurosporine induced apoptosis (caspase-3 and caspase-7 activity) (SH-SY5Y cells [2]; 1,6 µM thiabendazole plus 0,1 µM staurosporine, 5h, staurosporine alone = 100 %): 59%
staurosporine induced apoptosis (caspase-3 and caspase-7 activity) (SH-SY5Y cells [2]; 3,1 µM thiabendazole plus 0,1 µM staurosporine, 5h, staurosporine alone = 100 %): 44%
staurosporine induced apoptosis (caspase-3 and caspase-7 activity) (SH-SY5Y cells [2]; 6,3 µM thiabendazole plus 0,1 µM staurosporine, 5h, staurosporine alone = 100 %): 28%
staurosporine induced apoptosis (caspase-3 and caspase-7 activity) (SH-SY5Y cells [2]; 12,5 µM thiabendazole plus 0,1 µM staurosporine, 5h, staurosporine alone = 100 %): 19%
degree of apoptosis relative to the staurosporine control (primary cortical neurons; [10]): 58%
viability of the neuronal cells (Renilla luciferase activity) (SH-SY5Y neuronal cells; 0,8 µM to 50 µM final concentration, 5 h, Fig. 3): did not show any significant effect on the viability
viability of neuronal cells (Renilla luciferase activity) (SH-SY5Y neuronal cells): did not show any significantly reduced viability
degree of apoptosis relative to the staurosporine control (SH-SY5Y cells [1]): 68%
apoptotic effect by themselves (SH-SY5Y cells [1]; compound without staurosporine): Neither thiabendazole nor derivatives thereof exhibited an apoptotic effect by themselves
oral LD 50 [3]: 3,6 g/kg
oral LD 50 [4]: 3,1 g/kg
oral LD 50 [5]: 3,8 g/kg
solubility in water [6]: approximately 50 mg/l
inhibitor of cytochrom P450 1A2 (CyP1A2) [7]: potent inhibitor
administered dose recovered from the feces [8]: about 5%
administered dose recovered from the urine [8]: about 90%

Nc1nc(-c2nc3ccccc3[nH]2)cs1 [C, 4-(benzimidazol-2-yl)-1,3-thiazol-2-amine]
differentiation of neural stem cells to neurons (relative induction of the class III β-tubulin gene promoter controlled luciferase signal) (neural stem cells; [9]): significantly stimulate the differentiation of neural stem cells to neurons
degree of apoptosis relative to the staurosporine control (primary cortical neurons; [10]): 52%
viability of neuronal cells (Renilla luciferase activity) (SH-SY5Y neuronal cells): did not show any significantly reduced viability
degree of apoptosis relative to the staurosporine control (SH-SY5Y cells [1]): 46%

CN[C@@H]1C[C@H]2O[C@@](C)([C@@H]1OC)n1c3ccccc3c3c4c(c5c6ccccc6n2c5c31)C(=O)NC4 [staurosporine]
staurosporine induced apoptosis (caspase-3 and caspase-7 activity) (SH-SY5Y cells [2]; 0,1 µM staurosporine alone (reference, set to 100 %)): 100%
degree of apoptosis relative to the staurosporine control (SH-SY5Y cells [2]; SH-SY5Y cells, staurosporine 0,5 µM alone (positive control), sham 26 %): 100%
degree of apoptosis relative to the staurosporine control (primary cortical neurons; staurosporine 0,5 µM alone (positive control)): 100%

Oc1ccc2nc(-c3cscn3)[nH]c2c1 [E, 2-(1,3-thiazol-4-yl)-benzimidazole-5-ol]
differentiation of neural stem cells to neurons (relative induction of the class III β-tubulin gene promoter controlled luciferase signal) (neural stem cells; [9]): significantly stimulate the differentiation of neural stem cells to neurons
degree of apoptosis relative to the staurosporine control (primary cortical neurons; [10]): 60%
degree of apoptosis relative to the staurosporine control (SH-SY5Y cells [1]): 83%

c1ccc2[nH]c(-c3cncs3)nc2c1 [B, 2-(1,3-thiazol-5-yl)-benzimidazole]
differentiation of neural stem cells to neurons (relative induction of the class III β-tubulin gene promoter controlled luciferase signal) (neural stem cells; [9]): significantly stimulate the differentiation of neural stem cells to neurons
degree of apoptosis relative to the staurosporine control (primary cortical neurons; [10]): 55%
degree of apoptosis relative to the staurosporine control (SH-SY5Y cells [1]): 65%
